According to PMC4929566, “The metabolome of [2-^14C](−)-epicatechin in humans: implications for the assessment of efficacy, safety, and mechanisms of action of polyphenolic bioactives” (Scientific Reports, 2016):
Like-named read-outs stand apart in the source and are kept apart here.

Assays:
[1] = Metabolite profiling and quantification in urine (HPLC-MS2 with on-line radioactivity detector); assay type: in vivo, humans; settings: human, oral 207 μmol 14C-EC, mean ± SEM n=8; for Metabolite present in urine, collection period 4–8 h / Metabolite present in urine, collection period 8–12 h / Metabolite present in urine, collection period 12–24 h / Metabolite present in urine, collection period 0–4 h / Metabolite present in urine, collection period 24–48 h: – = not detected
Procedure: (§1) The study was a single-center, open-label, and non-randomized study with two distinct elements: a run-in phase to establish a more defined dietary background of dietary flavanols and procyanidins and the subsequent ^14C-EC ADME study (Fig. 1B). Participants (n = 12) were enrolled in the run-in phase (day –17 to day –4) and asked to supplement their daily diet for 14 days with a commercially available flavanol-containing cocoa-based drink (250 mg cocoa flavanols; 40 mg of EC). This was followed by a 4-day period (day –4 to 0) of a low-flavanol diet. One day (study day -1) prior to the initialization of the ^14C-EC ADME study, all eligible participants were accommodated under controlled conditions at a metabolic research facility (Covance Clinical Pharmacology Inc., Wisconsin) until completion of the study. Based on the compliance of the first part of the study, 8 participants were selected to participate in the ^14C-EC ADME study. During the ^14C-EC ADME study (Fig. 1B.), volunteers received a low-flavanol, standardized high-fiber diet, and were encouraged to maintain an adequate level of hydration (water ad libitum). Volunteers were asked to fast for 8 h before the initiation of the study and for at least 4 h after the intake of the ^14C-EC test drink (water ad libitum). Venous blood samples were taken using Vacutainer collection tubes, containing potassium EDTA at 0 h (just prior to ^14C-EC ingestion), and at 0.25, 0.5, 1, 1.5, 2, 2.5, 3, 4, 6, 8, 10, 12, 16, 24, 36, and 48 h after test drink consumption. Plasma was obtained by whole blood centrifugation at 2000 × g for 15 min at 5 °C, separated into aliquots and stored at −80 °C until analysis. All urine and feces from the time just prior to the consumption of the test drink were collected at different time intervals for radioactivity and metabolite profiling. Clinical parameters and laboratory evaluations of participants were assessed at screening, on study day –1, and after completing the study, as detailed in Supplementary Methods.
(§2) Samples were processed as described previously[18] and analyzed by HPLC-MS^2 in conjunction with an on-line HPLC-radioactivity monitor as described in SI Materials and Methods. Identification of metabolites involved comparing the retention time with authentic standards and MS^2 fragmentation patterns (Supplementary Methods). Quantification of metabolites in urine was based on HPLC radioactivity peak area (limit of quantification: 10^3 dpm). Due to the low levels of radioactivity, quantification in plasma was based on targeted HPLC-MS^2 using standard curves obtained with authentic standards (Supplementary Methods).
HPLC-MS identifications of radiolabeled [2-14C](−)-epicatechin metabolites in urine Urine was analyzed with radioactivity and mass spectrometry (MS) detection using a 250 mm x 4.6 mm i.d. 5 µm Luna Phenyl-Hexyl column (Phenomenex, Macclesfield, UK) […]
formic acid. Metabolite identification was performed by 1) co-chromatography of metabolites with reference compounds and a comparison of their MS fragmentation patterns 2, 2) by comparing m/z fragmentation patterns with earlier in-house observed […]
patterns to databases of metabolites reported in earlier polyphenol feeding studies5-7.
Supplementary Table S2, which also provides information on the MSI MI (Metabolite Standards Initiative – Metabolites Identification) level, a confidence level for identification where level 1 stands for fully elucidated (i.e., by comparison with a standard) and level 2 for a well characterized, but not yet fully structurally elucidated 8

[2] = Metabolite profiling and pharmacokinetics in plasma (targeted HPLC-MS2); assay type: in vivo, humans; settings: for Identification as human EC metabolite: human plasma and urine, radiolabeled tracer
Procedure: as §1, §2
Data are expressed as mean values ± standard error, or as otherwise specified. Pharmacokinetic parameters were calculated using non-compartmental analysis with WinNonlin (Pharsight Corporation, Version 5.2).
5-20% acetonitrile in 0.1 % formic acid. Supplementary Table S2 provides details of HPLC retention times and the m/z values that were monitored.
Supplementary Table S2. Detection of (−)-epicatechin metabolites. HPLC retention times and selected reaction monitoring ions used for the HPLC-MS analysis of (−)-epicatechin metabolites in plasma. […]
Structurally related (-)-epicatechin metabolites in humans: assessment using de novo chemically synthesized authentic standards. Free Radic Biol Med 52, 1403- […]
3 Borges, G. et al. Bioavailability of multiple components following acute ingestion of a polyphenol-rich juice drink. Mol Nutr Food Res 54 Suppl 2, S268-277, […]
4 Stalmach, A. et al. Absorption, metabolism, and excretion of green tea flavan-3-ols in humans with an ileostomy. Mol Nutr Food Res 54, 323-334,

[3] = human plasma, oral 60 mg 14C-EC, mean ± SEM n=8

Molecule | Metabolite present in urine, collection period 0–48 h [1] [μ mol] | Metabolite present in urine, collection period 4–8 h [1] [μ mol] | Metabolite present in urine, collection period 8–12 h [1] [μ mol] | Metabolite present in urine, collection period 12–24 h [1] [μ mol] | AUC0-24h [2, 3] [µM·h] | Cmax [2, 3] [nM] | T1/2 (elimination half-life) [2, 3] [h] | Tmax [2, 3] [h] | other results
O=C(O)CCC(O)Cc1ccc(O[C@@H]2O[C@H](C(=O)O)[C@@H](O)[C@H](O)[C@H]2O)c(O)c1 (some centres unmarked) [5-(3′-Hydroxyphenyl)-γ-hydroxyvaleric acid-4′-O-glucuronide] | 2.3 ± 0.7 | 1.3 ± 0.5 | 0.5 ± 0.3 | 0.5 ± 0.1 | 0.835 ± 0.355 | 54 ± 14 | 6.5 ± 0.8 | 4.9 ± 1.3 | –
COc1cc([C@H]2Oc3cc(OS(=O)(=O)O)cc(O)c3C[C@H]2O)ccc1O [3′-O-Methyl-(−)-epicatechin-7-sulfate, 3′-O-methyl-(−)-epicatechin-7-sulfate] | 1.2 ± 0.3 | 0.3 ± 0.1 | – | – | 1.03 ± 0.26 | 159 ± 20 | 2.4 ± 0.2 | 1.1 ± 0.1 | Metabolite present in urine, collection period 0–4 h [1]: 0.9 ± 0.2 μ mol
O=S(=O)(O)Oc1ccc([C@H]2Oc3cc(O)cc(O)c3C[C@H]2O)cc1O [(−)-epicatechin-4′-sulfate, reference compound] | – | – | – | – | – | – | – | – | Identification as human EC metabolite [2]: could not be identified by us
Hydroxyphenylacetic acid-sulfate | 2.9 ± 1.1 | 0.9 ± 0.5 | 0.8 ± 0.6 | 1.2 ± 0.4 | – | – | – | – | –
O=C(O)CNC(=O)c1ccccc1 [Hippuric acid] | 26.4 ± 7.1 | 7.2 ± 3.9 | 5.6 ± 2.6 | 7.1 ± 2.1 | – | – | – | – | Metabolite present in urine, collection period 0–4 h [1]: 0.6 ± 0.4 μ mol; Metabolite present in urine, collection period 24–48 h [1]: 5.9 ± 4.1 μ mol
O=C(O)[C@H]1O[C@@H](Oc2ccc([C@H]3Oc4cc(O)cc(O)c4C[C@H]3O)cc2O)[C@H](O)[C@@H](O)[C@@H]1O [(−)-epicatechin-4′-β-D-glucuronide, reference compound] | – | – | – | – | – | – | – | – | Identification as human EC metabolite [2]: could not be identified by us
5-(Hydroxyphenyl)-γ-hydroxyvaleric acid-sulfate | – | – | – | – | 1.49 ± 0.475 | 56 ± 9 | 7.6 ± 3.5 | 5.9 ± 0.6 | –
O=C1CCC(Cc2ccc(O)c(O[C@@H]3O[C@H](C(=O)O)[C@@H](O)[C@H](O)[C@H]3O)c2)O1 (some centres unmarked) [5-(4′-Hydroxyphenyl)-γ-valerolactone-3′-O-glucuronide] | – | – | – | – | – | – | – | – | Cmax ([2]; male, human plasma, oral 60 mg 14C-EC, mean ± SEM n=8): 125 ± 30 nM; AUC(0-t) ([2]; male, human plasma, oral 60 mg 14C-EC, mean ± SEM n=8, read-out: AUC0-24h): 1.91 ± 0.787 µM·h; half-life ([2]; male, human plasma, oral 60 mg 14C-EC, mean ± SEM n=8, read-out: T1/2 (elimination half-life) (converted)): 3.1 ± 0.6 h; Tmax ([2]; male, human plasma, oral 60 mg 14C-EC, mean ± SEM n=8, read-out: Tmax): 6.8 ± 0.8 h
O=C(O)CNC(=O)c1cccc(O)c1 [3′-Hydroxyhippuric acid] | 16.9 ± 5.8 | 1.6 ± 0.5 | 2.8 ± 0.7 | 7.0 ± 2.9 | – | – | – | – | Metabolite present in urine, collection period 24–48 h [1]: 5.5 ± 2.3 μ mol
COc1cc([C@H]2Oc3cc(O)cc(O[C@@H]4O[C@H](C(=O)O)[C@@H](O)[C@H](O)[C@H]4O)c3C[C@H]2O)ccc1O [3′-O-methyl(−)-epicatechin-5-O-β-D-glucuronide] | – | – | – | – | 0.025 ± 0.01 | 23 ± 5 | 1.3 ± 0.2 | 0.8 ± 0.2 | Relative amount (% of total) of individual SREM in plasma ([2]; human, 1 h post 14C-EC intake, Fig. 4A): < 3%
O=C(O)CCC(O)Cc1cccc(OS(=O)(=O)O)c1 (centres unmarked) [5-(Phenyl)-4-hydroxyvaleric acid-3′-sulfate] | 2.9 ± 1.6 | 1.9 ± 1.0 | 0.3 ± 0.2 | 0.7 ± 0.7 | – | – | – | – | –
O=C1CCC(Cc2ccc(O[C@@H]3O[C@H](C(=O)O)[C@@H](O)[C@H](O)[C@H]3O)c(O)c2)O1 (some centres unmarked) [5-(3′-Hydroxyphenyl)-γ-valerolactone-4′-O-glucuronide] | – | – | – | – | 1.33 ± 0.396 | 52 ± 9 | 4.4 ± 1.3 | 6.1 ± 0.8 | –
5-(Phenyl)-γ-valerolactone-O-sulfate-O-glucuronide | – | – | – | – | 1.02 ± 0.481 | 39 ± 9 | 6.4 ± 2.2 | 5.5 ± 1.1 | –
COc1cc([C@H]2Oc3cc(O[C@@H]4O[C@H](C(=O)O)[C@@H](O)[C@H](O)[C@H]4O)cc(O)c3C[C@H]2O)ccc1O [3′-O-methyl(−)-epicatechin-7-O-β-D-glucuronide] | – | – | – | – | 0.077 ± 0.031 | 39 ± 5 | 1.3 ± 0.3 | 0.9 ± 0.1 | –
O=C(O)[C@H]1O[C@@H](Oc2cc(O)c3c(c2)O[C@H](c2ccc(O)c(O)c2)[C@H](O)C3)[C@H](O)[C@@H](O)[C@@H]1O [(−)-Epicatechin-7-O-glucuronide, (−)-epicatechin-7-O-β-D-glucuronide] | – | – | – | – | 0.045 ± 0.014 | 22 ± 7 | 1.7 ± 0.3 | 0.8 ± 0.1 | –
O=S(=O)(O)Oc1cc(O)c2c(c1)O[C@H](c1ccc(O)c(O)c1)[C@H](O)C2 [(−)-Epicatechin-7-sulfate] | – | – | – | – | 0.043 ± 0.016 | 19 ± 3 | 2.2 ± 0.4 | 1.1 ± 0.2 | –
O=C1CCC(Cc2cccc(OS(=O)(=O)O)c2)O1 (centres unmarked) [5-(Phenyl)-γ-valerolactone-3′-sulfate] | 4.7 ± 2.7 | 2.4 ± 1.1 | 1.2 ± 0.9 | 1.0 ± 0.8 | – | – | – | – | Metabolite present in urine, collection period 0–4 h [1]: 0.1 ± 0.1 μ mol
